Assay results as given in patent US6548495B2, “Dihydro-benzo [B] [1,4] diazepin-2-one derivatives” (Hoffmann-La Roche Inc., priority 2002, dated 2003).

What was measured:
[1] = target: T1, recombinant rat mGluR2 expressed in CHO cells (Rattus norvegicus, UniProt P31421); experiment: [3H]-LY354740 binding on mGlu2 transfected CHO cell membranes (displacement binding assay); conditions: displacement of 10 nM [3H]-LY354740, membranes of CHO cells expressing rat mGlu2, room temperature, 1 hour; Ki calculated from IC50 with the Cheng and Prusoff equation
T1 construct: expressed in transfected cells; host or cells: CHO cells, stably transfected with pcD1mGR2 (pcDNA I-amp), G-418 selected; membranes used
T1 sequence (P31421 19-872): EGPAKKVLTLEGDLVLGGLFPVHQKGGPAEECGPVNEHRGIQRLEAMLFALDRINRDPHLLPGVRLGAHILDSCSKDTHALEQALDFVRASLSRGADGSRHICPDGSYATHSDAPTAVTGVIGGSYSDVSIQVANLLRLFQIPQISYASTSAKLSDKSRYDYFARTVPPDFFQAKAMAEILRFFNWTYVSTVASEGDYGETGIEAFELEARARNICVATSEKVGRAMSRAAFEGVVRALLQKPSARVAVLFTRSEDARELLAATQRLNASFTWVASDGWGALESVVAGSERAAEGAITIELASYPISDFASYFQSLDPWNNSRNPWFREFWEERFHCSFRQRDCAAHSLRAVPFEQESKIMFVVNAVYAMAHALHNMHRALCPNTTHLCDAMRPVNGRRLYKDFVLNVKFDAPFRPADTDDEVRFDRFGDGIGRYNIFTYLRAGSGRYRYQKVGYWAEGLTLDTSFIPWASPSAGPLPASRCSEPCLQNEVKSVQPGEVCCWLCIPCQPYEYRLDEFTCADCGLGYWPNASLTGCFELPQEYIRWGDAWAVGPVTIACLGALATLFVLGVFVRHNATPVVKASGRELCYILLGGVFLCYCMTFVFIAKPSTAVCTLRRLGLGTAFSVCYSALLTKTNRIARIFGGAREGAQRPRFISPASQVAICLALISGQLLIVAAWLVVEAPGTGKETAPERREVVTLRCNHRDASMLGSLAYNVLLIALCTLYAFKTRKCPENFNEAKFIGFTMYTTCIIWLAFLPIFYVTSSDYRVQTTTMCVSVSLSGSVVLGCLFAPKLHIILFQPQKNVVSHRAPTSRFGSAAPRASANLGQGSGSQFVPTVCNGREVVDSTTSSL
Excerpt: In Table I below some specific Ki values of preferred compounds of the invention are presented. These values were obtained by indirect measurement of the affinity of the compounds for the recombinant rat mGluR2 expressed in CHO cells using a displacement binding assay with 3H-LY354740.
[^3H]-LY354740 Binding on mGlu2 Transfected CHO Cell Membranes
Transfection and Cell Culture
cDNA encoding the rat mGlu2 receptor protein in pBluescript II was obtained from Prof. S. Nakanishi (Kyoto, Japan), and subcloned into the eukaryotic expression vector pcDNA I-amp from Invitrogen (NV Leek, The Netherlands). This vector construct (pcD1mGR2) was co-transfected with a psvNeo plasmid encoding the gene for neomycin resistance, into CHO cells by a modified calcium phosphate method described by Chen & Okayama (1988). The cells were maintained in Dulbecco's Modified Eagle medium with reduced L-glutamine (2 mM final concentration) and 10% dialysed foetal calf serum from Gibco BRL (Basel, Switzerland). Selection was made in the presence of G-418 (1000 ug/mL final). Clones were identified by reverse transcription of 5 μg total RNA, followed by PCR using mGlu2 receptor specific primers 5′-[…]-3′ and 5′-[…]-3′ in 60 mM Tris HCl (pH 10), 15 mM (NH4)2SO4, 2 mM MgCl2, 25 units/mL Taq Polymerase with 30 cycles annealing at 60° C. for 1 min., extention at 72° C. for 30 s, and 1 min. 95° C. denaturation.
Cells, cultured as above, were harvested and washed three times with cold PBS and frozen at −80° C. The pellet was resuspended in cold 20 mM HEPES-NaOH buffer containing 10 mM EDTA (pH 7.4), and homogenised with a polytron (Kinematica, AG, Littau, Switzerland) for 10 s at 10000 rpm. After centrifugation for 30 min. at 4° C., the pellet was washed once with the same buffer, and once with cold 20 mM HEPES-NaOH buffer containing 0.1 mM EDTA, (pH 7.4). Protein content was measured using the Pierce method (Socochim, Lausanne, Switzerland) using bovine serum albumin as standard.
After thawing, the membranes were resuspended in cold 50 mM Tris-HCl buffer containing 2 mM MgCl2 and 2 mM CaCl2, (pH 7) (binding buffer). The final concentration of the membranes in the assays was 25 μg protein/mL. Inhibition experiments were performed with membranes incubated with 10 nM [^3H]-LY354740 at room temperature, for 1 hour, in presence of various concentrations of the compound to be tested. Following the incubations, membranes were filtered onto Whatmann GF/C glass fiber filters and washed 5 times with cold binding buffer. Non specific binding was measured in the presence of 10 μM DCG IV. After transfer of the filters into plastic vials containing 10 mL of Ultima-gold scintillation fluid (Packard, Züirich, Switzerland), the radioactivity was measured by liquid scintillation in a Tri-Carb 2500 TR counter (Packard, Züirich, Switzerland).
The inhibition curves were fitted with a four parameter logistic equation giving IC50 values, and Hill coefficients and the Ki values were calculated using the Cheng and Prusoff equation (Cheng, Y. and Prusoff, W. H., Biochem. Pharmacol. 1973, 22, 3099-3108). A small Ki value expresses high affinity of the compound towards the receptor.

| Compound | Ki [1] [nM] | melting point [°C] |
| --- | --- | --- |
| NC(=O)c1coc(-c2cccc(C3=Nc4ccc(-n5cccc5)cc4NC(=O)C3)c2)n1 [Example 27, 2-[3-(4-oxo-7-Pyrrol-1-yl-4,5-dihydro-3H-benzo[b][1,4]diazepin-2-yl)-phenyl]-oxazole-4-carboxylic Acid Amide] | 62 | 232 to 234 |
| O=C1CC(c2cccc(-c3nc(C(=O)NCCO)co3)c2)=Nc2ccc(-n3cccc3)cc2N1 [Example 34, 2-[3-(4-oxo-7-Pyrrol-1-yl-4,5-dihydro-3H-benzo[b][1,4]diazepin-2-yl)-phenyl]-oxazole-4-carboxylic Acid (2-Hydroxy-ethyl)-amide] | 91 | 242 to 244 |
| CCOc1cc2c(cc1C(F)(F)F)NC(=O)CC(c1cccc(-n3nncc3CO)c1)=N2 [Example 52, 7-Ethoxy-4-[3-(5-hydroxymethyl-[1,2,3]triazol-1-yl)-phenyl]-8-trifluoromethyl-1,3-dihydro-benzo[b][1,4]diazepin-2-one] | 83.5 | 214 |
| Cc1cc(-c2cccc(C3=Nc4cc(N5CCSCC5)c(C#N)cc4NC(=O)C3)c2)on1 [Example 62, 2-[3-(3-Methyl-isoxazol-5-yl)-phenyl]-4-oxo-8-thiomorpholin-4-yl-4,5-dihydro-3H-benzo[b][1,4]diazepine-7-carbonitrile] | 32.5 | 245 |
| O=C1CC(c2cccc(-n3nncc3CNC3CC3)c2)=Nc2cc(Cl)c(C(F)(F)F)cc2N1 [Example 67, 7-Chloro-4-[3-(5-cyclopropylaminomethyl-[1,2,3]triazol-1-yl)-phenyl]-8-trifluoromethyl-1,3-dihydro-benzo[b][1,4]diazepin-2-one] | 15.5 | 206 |
| Cc1cc2c(cc1C(F)(F)F)NC(=O)CC(c1cccc(-n3nncc3CNC3CC3)c1)=N2 [Example 69, 4-[3-(5-Cyclopropylaminomethyl-[1,2,3]triazol-1-yl)-phenyl]-7-methyl-8-trifluoromethyl-1,3-dihydro-benzo[b][1,4]diazepin-2-one] | 26 | 181 |
| Cc1cc2c(cc1C(F)(F)F)NC(=O)CC(c1cccc(-n3cccn3)c1)=N2 [Example 77, 7-Methyl-4-(3-pyrazol-1-yl-phenyl)-8-trifluoromethyl-1,3-dihydro-benzo[b][1,4]diazepin-2-one] | 70 | 235 |

Stronger by Ki [1], values ahead:

| Ki [1] [nM] | melting point [°C] | Compound |
| --- | --- | --- |
| 6 | 211 | Cn1nccc1-c1cccc(C2=Nc3cc(N4CCOCC4)c(C(F)(F)F)cc3NC(=O)C2)c1 [Example 38, 4-[3-(2-Methyl-2H-pyrazol-3-yl)-phenyl]-7-morpholin-4-yl-8-trifluoromethyl-1,3-dihydro-benzo[b][1,4]diazepin-2-one] |
| 0.9 | 195 to 199 | N#Cc1cc(C2=Nc3cc(N4CCSCC4)c(C(F)(F)F)cc3NC(=O)C2)ccn1 [Example 42, 4-(4-oxo-8-Thiomorpholin-4-yl-7-trifluoromethyl-4,5-dihydro-3H-benzo[b][1,4]diazepin-2-yl)-pyridine-2-carbonitrile] |
| 8 | 233 | CCOc1cc2c(cc1C(F)(F)F)NC(=O)CC(c1ccnc(C#N)c1)=N2 [Example 53, 4-(8-Ethoxy-4-oxo-7-trifluoromethyl-4,5-dihydro-3H-benzo[b][1,4]diazepin-2-yl)-pyridine-2-carbonitrile] |
| 8.5 | 235 | Cc1cc2c(cc1C(F)(F)F)NC(=O)CC(c1ccnc(C#N)c1)=N2 [Example 58, 4-(8-Methyl-4-oxo-7-trifluoromethyl-4,5-dihydro-3H-benzo[b][1,4]diazepin-2-yl)-pyridine-2-carbonitrile] |
| 6.5 | 214 to 217 | Cc1cc2c(cc1C(F)(F)F)NC(=O)CC(c1cccc(-c3nc(CO)sc3C)c1)=N2 [Example 84, 4-[3-(2-Hydroxymethyl-5-methyl-thiazol-4-yl)-phenyl]-7-methyl-8-trifluoromethyl-1,3-dihydro-benzo[b][1,4]diazepin-2-one] |
